In patent US20260306459A1, “INHIBITORS OF NSUN1- AND NSUN2-MEDIATED ACTIVE STRUCTURES” (THE UNIVERSITY OF CHICAGO, priority 2023, published 2026):
Entries after “also recorded” stand apart in the source; their conditions may differ.

Key:
[1] = tested on: SC cells; assay: MTT growth inhibition in venetoclax-resistant monocytic leukemia cell line SC; type: cell-based, human; settings: for Effective cell lines: SC: venetoclax-resistant human monocytic leukemia, wrapped cell
Excerpt: (§1) FIGS. 8A-8B display a schematic of an 5-ethynyl uridine click chemistry (EC)-coupled flow cytometry (EC-FCM) assay (FIG. 8A), while FIG. 8B depicts the results of an EC-FCM assay showing distinct drug-specific signatures/patterns of nascent RNA synthesis inhibition in the venetoclax sensitive leukemia cell line (K1). The MTT assay measures cell viability and proliferation as well as cytotoxicity of compounds by assessing cellular metabolic activity. The associated measurement can be described as cell viability, cell killing, and/or growth inhibition.
(§2) FIGS. 11A-11D display scatter plot representations of screening results for AI-designed NSUN1-targeting compound libraries in a venetcoclax-resistant human myeloid leukemia cell line (SC), lung cancer cell line (H82), and venetoclax resistant human […], and a schematic representation of categorization of the results. A human myeloid leukemia cell Line (SC), a lung cancer cell line (H82 or K562) were both incubated at drug concentration 10 μM/μL overnight. MTT assays were performed after 24 hours, and changes were calculated as the percentage of mean absorbance (n=3) versus mean absorbance of drug-free control (n=3). Negative outliers indicated in red ovals. FIG. 11A depicts the results of an NSUN1-targeting drug library, 74 drugs, comparing growth/inhibition in H-82 (Y axis) and SC (X axis) cell lines. FIG. 11B depicts the results of an NSUN2-targeting drug library, 102 drugs, comparing growth/inhibition in H-82 (Y axis) and SC (X axis) cell lines. FIG. 11C depicts the results of an NSUN1-targeting drug library, 74 drugs, comparing growth/inhibition in K562 (Y axis) and SC (X axis) cell lines. FIG. 11D is a schematic representation showing categorization of the results from screens performed as described in FIG. 11, and validation experiments as described in FIG. 12.
(§3) FIGS. 12A-12J display bar graphs displaying the results of validation experiments for small molecule inhibitors of NSUN1/2-ACS interactions as identified herein. Drug validation of select SC, H82, and/or K562 inhibiting compounds in mouse acute myeloid leukemia cell Line (C1498), SC cells, H82 cells, and/or K562 cells. NSUN1-17 and/or venetoclax acted as controls. Inhibition of cell vitality was identified as dose-dependent for certain small molecules, not merely cytotoxic. In brief, stock with concentration 0.4×10^6 test (e.g., SC, H82, K562, or C1498, as labelled) cells/mL, and 10 μM/μL drug was serially diluted into drug-free cell stock to reach concentrations of 1 μM/μL and […] and split into 100 μL volumes in a 96-well plate. MTT assays performed after 24 hour incubation. Percentages calculated as a difference in mean absorbance of each drug triplicate and mean absorbance in drug-free cell triplicate. Red bars represent standard errors. The concentration of drug represented by each column is from left to right as written in the figure keys. FIGS. 12A-12E provide results from independent repeats for different groupings of small molecules tested against C1498 cells. FIGS. 12F-12G provide results from independent repeats for different groupings of small molecules tested against H82 cells. FIGS. […] provide results from independent repeats for different groupings of small molecules tested against SC cells. FIG. 12J provide results from an assay against K562 cells.
The inventors then designed a protocol for functional screening of NSUN1/2-targeting supercomputing/AI-derived compound libraries as schematically presented in FIGS. 5A-5G. Briefly, the library compounds were obtained from various chemical companies/vendors and dissolved in DMSO, and then applied to 96-well plates that contained leukemia and/or other cancer cells that were resistant to venetoclax. […]

[2] = tested on: H82 cells; assay: MTT growth inhibition in venetoclax-resistant lung cancer cell line H82; type: cell-based, human; settings: H82, venetoclax-resistant human lung cancer, wrapped cell
Excerpt: as §1, §2
FIGS. 12A-12J display bar graphs displaying the results of validation experiments for small molecule inhibitors of NSUN1/2-ACS interactions as identified herein. Drug validation of select SC, H82, and/or K562 inhibiting compounds in mouse acute myeloid leukemia cell Line (C1498), SC cells, H82 cells, and/or K562 cells. NSUN1-17 and/or venetoclax acted as controls. Inhibition of cell vitality was identified as dose-dependent for certain small molecules, not merely cytotoxic. In brief, stock with concentration 0.4×10^6 test (e.g., SC, H82, K562, or C1498, as labelled) cells/mL, and 10 μM/μL drug was serially diluted into drug-free cell stock to reach concentrations of 1 μM/μL and […] and split into 100 μL volumes in a 96-well plate. MTT assays performed after 24 hour incubation. Percentages calculated as a difference in mean absorbance of each drug triplicate and mean absorbance in drug-free cell triplicate. […]

[3] = tested on: leukemia and lung cancer cell lines; assay: Functional (MTT) screening of NSUN1/2-targeting libraries in leukemia and lung cancer cell lines; type: cell-based, human; settings: for Bioactive positive hit, tumor cell growth inhibition and lineage preference: leukemia and lung cancer cell lines; for Efficacy of tumor cell growth inhibition: multiple leukemia lines and/or lung cancer cell lines
Method: as §2, §3
The inventors then designed a protocol for functional screening of NSUN1/2-targeting supercomputing/AI-derived compound libraries as schematically presented in FIGS. 5A-5G. Briefly, the library compounds were obtained from various chemical companies/vendors and dissolved in DMSO, and then applied to 96-well plates that contained leukemia and/or other cancer cells that were resistant to venetoclax. Both the routine colorimetric assay (MTT assay) and the newly developed NSUN1/2-targeting fluorescence quenching and release (FQR) assay were performed to select bioactive compounds for further quantitative study to confirm that they targetNSUN1/2 and their associated ACS. As described below, the compound libraries screened through cancer cell proliferation and/or NSUN1/2 localization to the ACS successfully identified numerous promising compounds that can inhibit the leukemia cell growth and appear to target the NSUN1-mediated ACS (see Table 2). This success has proven the feasibility and efficacy of the described supercomputing/AI design and functional screening of the NSUN1/2-targeting drug libraries. In some aspects, screening is conducted using drug-resistant cell lines. […]

[4] = tested on: C1498 cells; assay: MTT growth inhibition in myeloid leukemia cell line C1498; type: cell-based, mouse; settings: C1498, mouse myeloid leukemia, wrapped cell
Excerpt: as §1, §3
The inventors then designed a protocol for functional screening of NSUN1/2-targeting supercomputing/AI-derived compound libraries as schematically presented in FIGS. 5A-5G. Briefly, the library compounds were obtained from various chemical companies/vendors and dissolved in DMSO, and then applied to 96-well plates that contained leukemia and/or other cancer cells that were resistant to venetoclax. Both the routine colorimetric assay (MTT assay) and the newly developed NSUN1/2-targeting fluorescence quenching and release (FQR) assay were performed to select bioactive compounds for further quantitative study to confirm that they targetNSUN1/2 and their associated ACS. As described below, the compound libraries screened through cancer cell proliferation and/or NSUN1/2 localization to the ACS successfully identified numerous promising compounds that can inhibit the leukemia cell growth and appear to target the NSUN1-mediated ACS (see Table 2). This success has proven the feasibility and efficacy of the described supercomputing/AI design and functional screening of the NSUN1/2-targeting drug libraries. In some aspects, screening is conducted using drug-resistant cell lines. In some aspects, screening is conducted using drug-sensitive cell lines. In some aspects, screening is conducted in leukemia cell lines. In some aspects, screening is conducted in other cancer cell lines besides leukemia (e.g., lung cancer cell lines). In some aspects, NSUN1/2-ACS inhibitors identified are verified in additional cell lines and/or animal models (see e.g., Tables 4-6).

[5] = molecular target: NSUN2-c-MYC interaction (Homo sapiens, UniProt Q08J23); assay: PL-RCA-FCM, NSUN2-c-MYC interaction; type: cell-based
Excerpt: (§4) Black=negative control, blue=positive control, no drug=red.
(§5) The PL-RCA-CM/imaging technique utilized in the inventors previous work (Cheng, J. X. et al., Nature Communications 2018) was suitable to visualize and semi-quantify the NSUN1/2-mediated ACS in cells. However, the previous technique had the disadvantage of having a low sensitivity and low throughput. To overcome this bottleneck, as described herein, the inventors developed NSUN1/2-targeting fluorescence quenching and release (FQR) plate assay (FIG. 6A) and PL-RCA flow cytometry (PL-RCA-FCM) technology (FIG. 6B) for screening of NSUN1/2-targeting drug libraries and quantitatively measuring NSUN1/2-mediated ACS with and without drugs in a lineage-specific and high-throughput manner. The new PL-RCA-FCM detected very strong PL-RCA signals (>2 logs) of the NSUN2-mediated interactions with m5C, RNAPII CTD2-S2P and BRD4, particularly in the venetoclax-resistant leukemia cells (SC) (FIG. 6C), in comparison to the venetoclax-sensitive K1 cells (FIG. 6D).

[6] = molecular target: T1, NSUN2-RNA polymerase II (RNAPII) interaction (Homo sapiens, UniProt Q08J23); assay: PL-RCA-FCM, NSUN2-RNAPII interaction; type: cell-based
T1 construct: RNAPII CTD2-S2P
Excerpt: as §4, §5

[7] = molecular target: T2, NSUN1-eRNAPII interaction (Homo sapiens, UniProt P46087); assay: PL-RCA-FCM, NSUN1-eRNAPII interaction; type: cell-based
T2 construct: RNAPII
Excerpt: (§6) FIGS. 5A-5G display a pipeline of computational design and functional screening of small-molecule compound libraries as well as exemplary characterization and validation of identified positive hit compounds and their targets. FIGS. 5A-5D display an exemplary experimental procedure, beginning with characterization of NSUN1 and/or NSUN2 putative binding modules for interaction with ACS components (FIGS. 5A-5B), a graphic displaying the design of a small molecule library and testing of the putative small molecule NSUN1/2-ACS inhibitors in cell lines (FIG. 5C), characterization of the NSUN1/2-ACS inhibitors interactions with the ACS machinery (FIG. 5D).
as §4
(§7) The PL-RCA-CM/imaging technique utilized in the inventors previous work (Cheng, J. X. et al., Nature Communications 2018) was suitable to visualize and semi-quantify the NSUN1/2-mediated ACS in cells. […] To overcome this bottleneck, as described herein, the inventors developed NSUN1/2-targeting fluorescence quenching and release (FQR) plate assay (FIG. 6A) and PL-RCA flow cytometry (PL-RCA-FCM) technology (FIG. 6B) for screening of NSUN1/2-targeting drug libraries and quantitatively measuring NSUN1/2-mediated ACS with and without drugs in a lineage-specific and high-throughput manner. […]

[8] = molecular target: NSUN2-mitochondrial translation initiation factor 3 (MTIF3) interaction (Homo sapiens, UniProt Q08J23); assay: PL-RCA-FCM, NSUN2-MTIF3 interaction; type: cell-based
Excerpt: (§8) FIG. 23 provides PL-RCA-FCM results and an associated schematic showing that NSUN2-11 can disrupt the interactions between NSUN2 and mitochondrial RNA polymerase (POLRMT) as well as mitochondrial translation initiation factor 3 (MTIF3). RNA:m5C/NSUN1/2-mediated transcription and translation complexes (RNATTC) mediate multidrug resistance through regulating multi-bioprocesses and multi-organelles' functions in cancer cells.
as §5

[9] = molecular target: NSUN1-c-MYC interaction (Homo sapiens, UniProt P46087); assay: PL-RCA-FCM, NSUN1-c-MYC interaction; type: cell-based
Excerpt: as §6, §4, §7

[10] = molecular target: NSUN2-mitochondrial RNA polymerase (POLRMT) interaction (Homo sapiens, UniProt Q08J23); assay: PL-RCA-FCM, NSUN2-POLRMT interaction; type: cell-based
Excerpt: as §8, §5

Sequence of NSUN2-mitochondrial translation initiation factor 3 (MTIF3) interaction (Q08J23 whole entry): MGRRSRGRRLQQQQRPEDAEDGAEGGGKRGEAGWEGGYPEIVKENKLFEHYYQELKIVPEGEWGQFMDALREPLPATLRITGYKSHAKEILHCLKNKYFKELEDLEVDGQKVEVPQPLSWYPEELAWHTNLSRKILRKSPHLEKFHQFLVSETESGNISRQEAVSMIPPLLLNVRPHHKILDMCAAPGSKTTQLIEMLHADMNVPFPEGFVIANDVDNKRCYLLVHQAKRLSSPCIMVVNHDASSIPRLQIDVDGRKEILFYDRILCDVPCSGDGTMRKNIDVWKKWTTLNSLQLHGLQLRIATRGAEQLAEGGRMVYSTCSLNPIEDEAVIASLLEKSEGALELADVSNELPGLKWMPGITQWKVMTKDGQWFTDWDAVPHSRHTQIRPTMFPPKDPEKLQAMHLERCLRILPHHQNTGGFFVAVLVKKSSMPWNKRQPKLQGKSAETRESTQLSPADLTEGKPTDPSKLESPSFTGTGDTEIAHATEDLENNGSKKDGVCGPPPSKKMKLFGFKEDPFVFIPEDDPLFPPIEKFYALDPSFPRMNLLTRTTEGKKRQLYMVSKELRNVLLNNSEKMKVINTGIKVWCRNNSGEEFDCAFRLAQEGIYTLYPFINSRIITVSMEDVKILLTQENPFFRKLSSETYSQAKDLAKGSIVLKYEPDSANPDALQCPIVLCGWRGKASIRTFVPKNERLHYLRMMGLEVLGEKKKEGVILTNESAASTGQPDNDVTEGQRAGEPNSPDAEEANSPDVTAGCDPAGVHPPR
Sequence of NSUN2-c-MYC interaction (Q08J23 whole entry): as above
Sequence of NSUN2-mitochondrial RNA polymerase (POLRMT) interaction (Q08J23 whole entry): as above
T1 sequence (Q08J23 whole entry): as above
Sequence of NSUN1-c-MYC interaction (P46087 whole entry): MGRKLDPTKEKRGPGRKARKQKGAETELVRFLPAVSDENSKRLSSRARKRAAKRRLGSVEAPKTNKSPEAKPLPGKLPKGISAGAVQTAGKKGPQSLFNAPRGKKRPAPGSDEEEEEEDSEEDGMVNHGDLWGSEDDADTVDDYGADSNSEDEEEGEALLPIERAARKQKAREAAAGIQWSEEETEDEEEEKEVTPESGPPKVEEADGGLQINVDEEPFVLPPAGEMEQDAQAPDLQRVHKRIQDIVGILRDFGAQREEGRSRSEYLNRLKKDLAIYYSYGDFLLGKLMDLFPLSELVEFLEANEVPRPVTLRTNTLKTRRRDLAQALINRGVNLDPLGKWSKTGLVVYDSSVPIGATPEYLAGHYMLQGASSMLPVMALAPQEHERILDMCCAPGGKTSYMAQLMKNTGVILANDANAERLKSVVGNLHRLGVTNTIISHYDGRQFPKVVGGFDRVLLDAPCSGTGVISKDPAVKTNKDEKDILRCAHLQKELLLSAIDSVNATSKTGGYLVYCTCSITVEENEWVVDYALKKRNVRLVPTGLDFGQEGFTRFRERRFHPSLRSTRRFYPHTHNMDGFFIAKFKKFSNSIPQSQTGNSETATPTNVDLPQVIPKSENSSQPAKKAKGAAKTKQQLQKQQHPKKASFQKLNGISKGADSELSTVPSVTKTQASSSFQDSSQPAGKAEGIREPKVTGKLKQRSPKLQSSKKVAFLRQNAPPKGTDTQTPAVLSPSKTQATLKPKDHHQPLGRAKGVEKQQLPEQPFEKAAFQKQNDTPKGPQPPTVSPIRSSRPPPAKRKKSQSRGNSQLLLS
T2 sequence (P46087 whole entry): as above

NC1(Cc2ccc(Cl)cc2)CCN(c2ncnc3[nH]ccc23)CC1 [NSUN1-19]
Effective cell lines: SC [1]: H82 > SC & | Effective cell lines: H82 [2]: H82 > SC & | Bioactive positive hit, tumor cell growth inhibition and lineage preference [3]: inhibits tumor cell growth in a lung cancer preferential manner | Effective cell lines: C1498 [4]: H82 > SC &

Cc1[nH]nc2ccc(-c3cncc(OCC(N)Cc4ccccc4)c3)cc12 (stereo not shown) [NSUN1-73]
Efficacy of tumor cell growth inhibition [3]: high-efficacy of tumor cell growth inhibition

CC(C)C[C@H](NC(=O)[C@@H](O)[C@H](N)Cc1ccccc1)C(=O)O [NSUN1-10, Bestatin or Ubenimex, reference compound]
Bioactive positive hit, tumor cell growth inhibition and lineage preference [3]: inhibits tumor cell growth in a leukemia preferential manner

COc1ccc2c(c1)CCc1c(C(=O)NCCc3nc4cc(C)ccc4[nH]3)n[nH]c1-2 [NSUN2-11]
Effect on NSUN2-mediated interaction with c-MYC [5]: can disrupt | Effect on NSUN2-mediated interaction with RNA polymerase II [6]: can disrupt | Effect on NSUN1 interaction with eRNAPII/RNAPII [7]: can disrupt | Bioactive positive hit, tumor cell growth inhibition and lineage preference [3]: inhibits tumor cell growth in a non-lineage specific manner | Effect on NSUN2-MTIF3 interaction [8]: can disrupt | Effect on NSUN1 interaction with c-MYC [9]: can disrupt | Effect on NSUN2-POLRMT interaction [10]: can disrupt

NC1(C(=O)NC(CCO)c2ccc(Cl)cc2)CCN(c2ncnc3[nH]ccc23)CC1 (stereo not shown) [NSUN1-9]
Effective cell lines: SC [1]: SC & C1498 > | Effective cell lines: H82 [2]: SC & C1498 > | Bioactive positive hit, tumor cell growth inhibition and lineage preference [3]: inhibits tumor cell growth in a leukemia preferential manner | Effective cell lines: C1498 [4]: SC & C1498 >

Oc1nc(Nc2ccc(Cl)cc2)nc2nccc(-c3ccncc3)c12 [NSUN1-67]
Bioactive positive hit, tumor cell growth inhibition and lineage preference [3]: inhibits tumor cell growth in a non-lineage specific manner

Nc1nc(Cn2c(=O)oc3ccccc32)nc(Nc2ccccc2)n1 [NSUN1-22]
Bioactive positive hit, tumor cell growth inhibition and lineage preference [3]: inhibits tumor cell growth in a lung cancer preferential manner | Effective cell lines: C1498 [4]: C1498 (weakly)

CC(C)Cc1nc(NC(=O)c2cc(-c3ccc4c(c3)CCO4)n[nH]2)n[nH]1 [NSUN1-17.16]
Bioactive positive hit, tumor cell growth inhibition and lineage preference [3]: inhibits tumor cell growth in a non-lineage specific manner

O=c1ccc2ccc(OCN3CCN(c4cccc5sccc45)CC3)cc2[nH]1 [NSUN2-35, reference compound]
Bioactive positive hit, tumor cell growth inhibition and lineage preference [3]: inhibits tumor cell growth in a lung cancer preferential manner

C=CC(=O)Nc1cccc(-c2cccc3cnc(Nc4ccc(N5CCN(CCO)CC5)c(F)c4F)nc23)c1 [NSUN1-14]
Efficacy of tumor cell growth inhibition [3]: high-efficacy of tumor cell growth inhibition

O=C(Nc1ccc(CN2CCCCC2)cc1)c1cccc(COc2ccc(Br)cc2)c1 [NSUN2-37]
Effective cell lines: SC [1]: H82 & SC > | Effective cell lines: H82 [2]: H82 & SC > | Bioactive positive hit, tumor cell growth inhibition and lineage preference [3]: inhibits tumor cell growth in a non-lineage specific manner | Effective cell lines: C1498 [4]: H82 & SC >

O=C(Nc1cccc(-c2nnc3n2CCCC3)c1)c1cc(-c2ccccc2)n[nH]1 [NSUN1-74]
Bioactive positive hit, tumor cell growth inhibition and lineage preference [3]: inhibits tumor cell growth in a non-lineage specific manner | Effective cell lines: C1498 [4]: C1498 (weakly)

Nc1ncccc1-c1cc(Cc2ccc(COc3ccccn3)cc2)no1 [NSUN1-11]
Inhibition of growth of venetoclax-resistant leukemia (SC) cells [1]: inhibition of the growth of venetoclax-resistant SC cells; also recorded: inhibit drug (venetoclax)-resistant leukemia cells | Bioactive positive hit, tumor cell growth inhibition and lineage preference [3]: inhibits tumor cell growth in a non-lineage specific manner
